Literature values as cited in patent US11021437B2, “Pharmaceutical formulation for sublingual or buccal delivery of epinephrine or a pro-drug thereof” (Iono Pharma, LLC, priority 2016, dated 2021).

Tests used:
[1] = 0.01 mg/kg subcutaneously in the deltoid region
[2] = in vivo

Row | Compound | time to maximum plasma epinephrine concentration [1] [min] | delay before onset of seizure [2] [min] | t1/2 hydrolysis in vitro [days] | t1/2 oxidation in vitro [days]
1 | CNC[C@H](O)c1ccc(O)c(O)c1 [Epinephrine] | ≤ 34 ± 14 | – | – | –
2 | CNCC(O)c1ccc(OC(=O)C(C)(C)C)c(OC(=O)C(C)(C)C)c1 (stereo not shown) [Structure 7D, 4-(1-hydroxy-2-(methylamino)ethyl)-1,2-phenylene bis(2,2-dimethylpropanoate)] | – | 8 to 10 | 700 | 300
